Data reported in patent US11097034B2, “Compositions and methods of modulating endochondral ossification and bone formation” (CASE WESTERN RESERVE UNIVERISTY, priority 2016, dated 2021).

Key:
bone fracture = assay: Temporal delivery of NGF to bone fracture site; assay type: in vivo, mice; settings: NGF delivery 7-9 days post-fracture compared with 4-6 days
Source text: FIGS. 24(A-B) illustrate plots showing the temporal therapeutic delivery of NGF to improve bone fracture healing in mice. (A) Timeline of experimental delivery of NGF to bone fracture site for two different post-fracture time ranges. (B) NGF expression decreases over time post-fracture.

unstable tibia fractures = assay: Carbachol injection into tibia fracture callus, μCT; assay type: in vivo, mouse; settings: injected into callus during cartilaginous phase; vs DMEM controls; trend
Procedure: All procedures were performed on adult male wild type (C57BL/6) mice. We created unstable tibia fractures through three point bending and surgically resected nerves proximal to the fracture (either the sciatic nerve, femoral nerve, or both) and compared them to mice who received sham procedures. We injected Carbachol (Cch), a synthetic acetylcholine analogue, into the callus during the cartilaginous phase of healing and compared them to controls that were injected with Dulbecco's Modified Eagle's medium (DMEM) alone. Bone mineral density (BMD) and bone volume were quantified using micro-computed tomography (μCT) analysis. Following μCT the tibiae were processed for histology and stained using the Hall Brunt Quadruple stain (HBQ). The tissue composition was quantified using stereology on an Olympus Cast system.

Molecule | activation of selected bone healing markers (bone fracture) | bone mineral density (BMD), μCT (unstable tibia fractures)
NGF: nerve growth factor | more robust activation of selected bone healing markers | –
C[N+](C)(C)CCOC(N)=O [Cch, Carbachol] | – | higher BMD than controls
